In data set [1] the test system is B16F10 mouse skin melanoma cells. It counts as cell-based. An excerpt: (§1) B16F10 mouse skin melanoma cells were maintained in DMEM (Gibco) supplemented with 10% fetal bovine serum (FBS, Corning), penicillin and streptomycin (Thermo Fisher). B16F10 cells were a generous gift from Dr. Edward Roy at the University of Illinois at Urbana-Champaign. E0771 mouse breast cancer cells (CH3 BioSystems) were maintained in RPMI-1640 (Gibco) supplemented with 10% FBS (Corning), penicillin and streptomycin (Thermo Fisher). For free-radical challenge experiments, 0.05% trypsin dissociated cells were counted and 1×10^4 cells per well were seeded in cell culture-treated 6 well plates (Thermo Fisher) 24 hours before the start of the experiment. […] Cells were then incubated up to 72 hours without media change and counted every 24 hours. […] Staining solution was then replaced by PBS and the cells were imaged on an Olympus inverted fluorescence microscope with 4× objective and FITC filter set. […] Live cells positively stained by Calcein-AM were counted using FIJI (NIH) and averaged over 4 counting fields per well at each time point (FIG. 12). For each image, only the green channel was analyzed. […] Using “Analyze Particles,” the distinct white areas from size 20 (to exclude small artifacts and debris) to size infinity were counted. Cell counts were then compiled and analyzed in Microsoft Excel. […]

Data set [2] deals with E0771 mouse breast cancer cells. It counts as cell-based.
Description: as §1

The conditions of data set [3]: Arrhenius equation; cited from earlier work.

`OO` [H2O2, hydrogen peroxide]: the “lethal dosage (positive control)” value in data set [1] is about 50 µM; in data set [2] it was about 30 µM.
For `CC(C#N)(CCC(=O)O)N=NC(C)(C#N)CCC(=O)O` (stereo not shown) [ACVA, 4,4′-azobis (4-cyanovaleric acid)], in data set [3], the “activation energy Ea of azo group decomposition” value was 31.76 kcal/mol and the “pre-exponential factor A of azo group decomposition” value was 6.21e+15 s⁻¹.

The values are drawn from patent US12201643B2, “Mechanochemical dynamic for focal cancer treatment” (THE BOARD OF TRUSTEES OF THE UNIVERSITY OF ILLINOIS, priority 2021, dated 2025).
